These results are taken from patent US9920088B2, “Triterpene derivative and its anti-influenza use” (Peking University, priority 2012, dated 2018).

Entries after “also recorded” stand apart in the source; their conditions may differ. Read-outs that look alike come from different tables or passages of the source.

A short description of data set [1]: in vitro. Particulars: human.
Data set [2] relates to MDCK cells. The conditions noted are these: dog, 48 h; for Cell viability(%) / Cell viability (%): 50 μM.
A short description of data set [3]: in vitro. Particulars: human. The source holds these as a separate data set.
Data set [4] concerns influenza virus A/WSN/33(H1N1). Kind of data set: Cytopathic effect (CPE) inhibition assay, WSN virus in MDCK cells. Particulars: for EC50: H1N1|WSN, 48 h; for Viral Infectivity (%): WSN MOI=1, 48 h, lower = better inhibition; for anti-influenza virus activity: WSN, CPE. The class given is cell-based. Background: Cytopathic effects are the visible damage that an infection or toxin causes in cultured cells.

Data set [5] can be described thus: in vitro. The conditions noted are these: dog.
Data set [6] deals with A/JiangXi-DongHu/312/2006 (H3N2). The experiment in a line: microbe, parasite or virus in culture. Type of data set: cell-based, influenza A virus.
The test system of data set [7] is A/Puerto Rico/8/34 (H1N1). The experiment in a line: CPE reduction assay, PR/8 (H1N1). Particulars: Influenza A virus. The class given is cell-based.
Data set [8] has as its system B/ShenZhen/155/2005. The experiment in a line: CPE reduction assay, B/SZ/155. Type of data set: cell-based. The conditions noted are these: Influenza B virus, B/SZ/155, CPE.
Data set [9] in a line: Cytotoxicity (CellTiter-Glo), MDCK cells. The conditions noted are these: dog. (ATP-based viability assays read luminescence as a measure of living cells.)
Data set [10] relates to HIV. Particulars: reported by European researchers; cited from earlier work.
The test system of data set [11] is H1N1 pseudotype virus (A/WSN/33 (H1N1) HA/NA). Kind of data set: microbe, parasite or virus in culture. The class given is cell-based. The conditions noted are these: Influenza A virus, H1N1pp, DMSO set to zero, read-out: inhibition rate.
For data set [12], the system named is A/WSN/33(H1N1) virus. The experiment in a line: Time-of-addition experiment (viral NP by Western blotting). Type of data set: cell-based, influenza A virus. On the technique in general: Immunoblotting shows a protein as a band on a membrane.
Data set [13] deals with different influenza viruses. Kind of data set: CPE reduction assays on different influenza viruses. The conditions noted are these: for inhibition effect on different influenza viruses: PR/8, LN/1109, JX/312, HN/1222, B/SZ/155. The class given is cell-based, influenza A virus and influenza B virus.
The subject of data set [14] is VSV pseudotype virus. The experiment in a line: microbe, parasite or virus in culture. The class given is cell-based. The conditions noted are these: Vesicular stomatitis virus, read-out: inhibition rate.
Data set [15] deals with A/WSN/33 (H1N1) virus. Kind of data set: Plaque inhibition assay. Type of data set: cell-based, influenza A virus. The conditions noted are these: for Plaque number: 0 μM = 100.
Data set [16] addresses influenza virus (WSN strain) hemagglutinin protein (HA) (Influenza A virus, UniProt P03454). Kind of data set: Hemagglutination inhibition (HI) assay. Particulars: chicken erythrocytes.
The test system of data set [17] is H5N1 pseudotype virus (A/VietNam/1203/2004 (H5N1) HA/NA). The experiment in a line: microbe, parasite or virus in culture. The class given is cell-based. The conditions noted are these: Influenza A virus, H5N1, read-out: inhibition rate.
Where [18] appears, read: PR/8 (H1N1), CPE, read-out: EC50.

By EC50 is commonly meant the concentration giving half of the maximal effect. For the compound `CC(=O)OCC1O[C@H](O[C@H]2C(COC(C)=O)O[C@H](OC(=O)[C@]34CCC(C)(C)C[C@H]3C3=CC[C@@H]5[C@@]6(C)CC[C@H](O)C(C)(C)[C@@H]6CC[C@@]5(C)[C@]3(C)CC4O)C(OC(C)=O)C2OC(C)=O)C(OC(C)=O)C(OC(C)=O)[C@@H]1OC(C)=O` (stereo partly drawn) [Compound Q10, 3β,16α-dihydroxy-olean-12-en-28-oic acid-28-O-(hepta-O-acetyl-β-D-lactoside)], the CC50 at 48 h in data set [1], in data set [3] and in data set [5] was above 100 µM throughout. Also, in data set [2], the “Cell viability(%)” value was determined as 98.1%. For the same compound, the EC50 in data set [4] (MDCK) is above 100 µM. For the same compound, the “Viral Infectivity (%)” value in [4] (Table 6, 50 μM) is 100.6%.

As for `NC(=O)c1ncn([C@@H]2O[C@H](CO)[C@@H](O)[C@H]2O)n1` [RBV, ribavirin, reference compound], the EC50 in [6] (Influenza A virus, H3N2) was determined as 4.19 ± 0.35 µM; in data set [7] it was 4.02 ± 1.27 µM; in data set [8], 1.32 ± 0.6 µM; in data set [4] (MDCK), 42.7 µM.

`NC12CC3CC(CC(C3)C1)C2` [Amantadine, amantadine, reference compound] showed a CC50 at 48 h in data set [9] above 200 µM. Further, the EC50 is 8.58 ± 1.65 µM in data set [6] (Influenza A virus, H3N2); 7.41 ± 0.21 µM in data set [7] (setting [18]); above 83.2 µM in data set [8].

`CCOC(=O)C1=C[C@@H](OC(CC)CC)[C@H](NC(C)=O)[C@@H](N)C1` [OSV-P, oseltamivir phosphate, reference compound]: the CC50 at 48 h in data set [1], in data set [3] and in [5] was above 100 µM in each case. Besides, the EC50 in [6] (Influenza A virus, H3N2) is 2.06 ± 0.58 µM; in data set [7] (setting [18]), above 200 µM; in data set [8], 91.1 ± 34.5 µM; in [4] (MDCK), 45.6 µM. In data set [2], this compound registered a CC50 above 200 µM.

Take `CC1(C)CC[C@]2(C(=O)O)CC[C@]3(C)C(=CC[C@@H]4[C@@]5(C)C[C@@H](O)[C@H](O)C(C)(C)[C@@H]5CC[C@]43C)[C@@H]2C1` [hawthorn acid]: in data set [10], the “inhibition rate of spread of HIV in the body” value was “up to 80%”.

In general, inhibition refers to the share of the control response that was lost under treatment. As usually defined, the IC50 is the midpoint of a concentration-inhibition curve. With `CC1(C)CC[C@]2(C(=O)O[C@H]3OC(CO)[C@@H](O)C(O)C3O)C(O)C[C@]3(C)C(=CC[C@@H]4[C@@]5(C)CC[C@H](O)C(C)(C)[C@@H]5CC[C@]43C)[C@@H]2C1` (stereo partly drawn) [Compound Q9, 3β,16α-dihydroxy-olean-12-en-28-oic acid-28-O-(β-D-galactoside)], the inhibition at 50 µM is 61.9% in [11]; 3.8% in data set [14]; 16.8% in data set [17]; 53.6 ± 6.16% in [4] (MDCK, Table 9, 50 μM, protective rate against cytopathy, read-out: IAV inhibition rate (%)). For the same compound, the CC50 at 48 h in [1], in data set [3] and in data set [5] was above 100 µM each time. Moreover, the EC50 was found to be 16.9 ± 5.38 µM in data set [6] (Influenza A virus, H3N2); 17.5 ± 0.43 µM in data set [7] (setting [18]); 36.2 ± 7.21 µM in [8]; 48.7 µM in data set [4] (MDCK). The “NP level reduction compared with the DMSO control” value in data set [12] (interval 0-2 h) is listed as around 62%; in data set [12] (interval 0-10 h) it was “around 75%”. Moreover, the “antiviral activity” value in [12] (intervals 2-5, 5-8, and 8-10 h) was “no antiviral activity was detected”. Besides, the “stage of viral lifecycle acted on” value in [12] (time-of-addition) is listed as “acted on the entry step of influenza virus into cells; also recorded: effective at the early stage (0-2 h) of the viral lifecycle”. For the same compound, the “inhibition effect on different influenza viruses” value in [13] is on record as “various extent of inhibition effect”. The same compound returned a CC50 in data set [2] above 200 µM. Besides, in data set [2], the “Cell viability (%)” value was determined as 100.3%. Moreover, in data set [2], the “Cell viability(%)” value is 89%. Also, the IC50 in [15] (Influenza A virus, WSN, MDCK cells, read-out: IC50 (plaque formation reduction)) was below 5 µM. Moreover, the Plaque number in [15] (Q9 5 μM) came to 42.9 ± 5.8; in data set [15] (Q9 10 μM) it was 21.8 ± 2.5; in [15] (Q9 25 μM), 14.1 ± 1.7; in [15] (Q9 50 μM), 7.6 ± 2.5; in data set [15] (Q9 100 μM), 0. In data set [16], the “effect on binding of viruses to cellular receptors” value is “interfered the binding of viruses to cellular receptors”. Also, the “Viral Infectivity (%)” value in data set [4] (Table 6, 50 μM) is 21.1%; in [4] (Table 8, 50 μM), 21.1%. Also, in [4] (50 μM), the “anti-influenza virus activity” value is on record as “significant inhibitory effect on influenza virus; also recorded: significant inhibition activity against influenza virus”.

For the compound `CC(=O)OCC1O[C@H](NC(=O)[C@]23CCC(C)(C)CC2C2=CCC4[C@@]5(C)CC[C@H](O)C(C)(C)C5CC[C@@]4(C)[C@]2(C)CC3)C(OC(C)=O)C(OC(C)=O)[C@@H]1OC(C)=O` (stereo partly drawn) [Compound Y5, 3β-hydroxy-olean-12-en-28-oic acid-28-N-(2,3,4,6-tetra-O-acetyl-β-D-galactoside)], the EC50 in data set [6] (Influenza A virus, H3N2) is 2.72 ± 0.35 µM; in [13] (strain not specified), below 2 µM; in [7] (setting [18]) it was 7.41 ± 0.05 µM; in data set [8], 2.8 ± 0.74 µM. The “inhibition effect on different influenza viruses” value in [13] was “various extent of inhibition effect”. Further, in [2], the “Cell viability (%)” value is reported as 81.7%. In addition, the “Viral Infectivity (%)” value in data set [4] (Table 8, 50 μM) turned out to be 9.0%. In addition, the “anti-influenza virus activity” value in data set [4] (50 μM) is listed as “significant anti-influenza virus activity; also recorded: most significant anti-influenza virus activity”. The compound also came in with a CC50 at 48 h in [5] above 100 µM.

As for `CC1(C)CC[C@]2(C(=O)O[C@H]3OC(CO)[C@H](O[C@@H]4OC(CO)[C@H](O)C(O)C4O)C(O)C3O)C(O)C[C@]3(C)C(=CC[C@@H]4[C@@]5(C)CC[C@H](O)C(C)(C)[C@@H]5CC[C@]43C)[C@@H]2C1` (stereo partly drawn) [Compound Q13, 3β,16α-dihydroxy-olean-12-en-28-oic acid-28-O-(β-D-maltoside)], the “Cell viability(%)” value in data set [2] was found to be 91.7%. In addition, the “Viral Infectivity (%)” value in [4] (Table 6, 50 μM) came to 115.5%.

With `CC1(C)CC[C@@]2(C(=O)N[C@H]3OC(CO)[C@@H](O)C(O)C3O)C(C1)C1=CCC3[C@@]4(C)CC[C@H](O)C(C)(C)C4CC[C@@]3(C)[C@]1(C)C[C@H]2O` (stereo partly drawn) [Compound Y2, 3β,16α-dihydroxy-olean-12-en-28-oic acid-28-N-(β-D-galactoside)], the EC50 in data set [6] was above 22.2 µM; in [7] (setting [18]), 6.22 ± 0.83 µM; in data set [8], above 22.2 µM. Besides, the “inhibition effect on different influenza viruses” value in [13] is on record as “various extent of inhibition effect”. In addition, the “Cell viability (%)” value in data set [2] was 105.0%. Further, the “Viral Infectivity (%)” value in data set [4] (Table 8, 50 μM) is 17.5%. Moreover, the “anti-influenza virus activity” value in data set [4] (50 μM) is listed as “significant anti-influenza virus activity”. For the same compound, the CC50 at 48 h in [5] was above 100 µM.
